These are literature values, as cited in patent US20090305955A1, “Cyclopeptide with Anti-Cancer Activity Derived from Collagen Type IV” (priority 2006, published 2009).

Data set [1] concerns the target T1, αVβ3 integrin-CD47 protein complex (Homo sapiens, UniProt P05106).
T1 construct: αVβ3 integrin-CD47 protein complex present on the surface of melanoma cells
Conditions: Shahan T A et al; cited from earlier work.

For data set [2], the system named is murine melanoma B16F1 cells. Conditions: cells pre-incubated with peptide, injected into C57BL6 syngenic mice; Floquet et al; cited from earlier work.
The test system of data set [3] is melanoma or fibrosarcoma cells. The settings on record: Pasco S et al, 2000a; cited from earlier work.
Data set [4] deals with various cancer cell lines. The settings on record: Han J et al; Shahan S et al; cited from earlier work.
A further data set has as its system angiogenesis. Conditions: Pasco S et al, 2005; cited from earlier work.

T1 sequence (P05106 27-788): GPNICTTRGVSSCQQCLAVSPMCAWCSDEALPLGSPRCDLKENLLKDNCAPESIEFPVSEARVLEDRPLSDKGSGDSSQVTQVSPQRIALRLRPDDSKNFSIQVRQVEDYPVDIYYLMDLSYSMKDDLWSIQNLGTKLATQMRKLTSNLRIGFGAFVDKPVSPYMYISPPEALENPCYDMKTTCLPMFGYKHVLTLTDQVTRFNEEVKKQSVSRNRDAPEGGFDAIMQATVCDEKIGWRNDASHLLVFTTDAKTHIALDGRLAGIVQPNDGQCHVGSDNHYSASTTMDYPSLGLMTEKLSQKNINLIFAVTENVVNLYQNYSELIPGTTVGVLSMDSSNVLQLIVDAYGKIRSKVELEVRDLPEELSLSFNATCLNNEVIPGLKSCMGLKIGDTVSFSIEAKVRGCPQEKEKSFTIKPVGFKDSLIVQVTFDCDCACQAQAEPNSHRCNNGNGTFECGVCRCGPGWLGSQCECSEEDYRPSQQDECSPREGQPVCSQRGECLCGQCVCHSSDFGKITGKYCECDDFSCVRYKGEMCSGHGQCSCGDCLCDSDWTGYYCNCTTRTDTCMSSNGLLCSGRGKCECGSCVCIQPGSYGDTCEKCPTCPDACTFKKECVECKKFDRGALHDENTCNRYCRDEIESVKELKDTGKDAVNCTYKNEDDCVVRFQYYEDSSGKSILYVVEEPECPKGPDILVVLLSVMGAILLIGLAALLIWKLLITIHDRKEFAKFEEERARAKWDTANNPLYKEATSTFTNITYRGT
T1 sequence (P06756 31-889 partner limits assumed): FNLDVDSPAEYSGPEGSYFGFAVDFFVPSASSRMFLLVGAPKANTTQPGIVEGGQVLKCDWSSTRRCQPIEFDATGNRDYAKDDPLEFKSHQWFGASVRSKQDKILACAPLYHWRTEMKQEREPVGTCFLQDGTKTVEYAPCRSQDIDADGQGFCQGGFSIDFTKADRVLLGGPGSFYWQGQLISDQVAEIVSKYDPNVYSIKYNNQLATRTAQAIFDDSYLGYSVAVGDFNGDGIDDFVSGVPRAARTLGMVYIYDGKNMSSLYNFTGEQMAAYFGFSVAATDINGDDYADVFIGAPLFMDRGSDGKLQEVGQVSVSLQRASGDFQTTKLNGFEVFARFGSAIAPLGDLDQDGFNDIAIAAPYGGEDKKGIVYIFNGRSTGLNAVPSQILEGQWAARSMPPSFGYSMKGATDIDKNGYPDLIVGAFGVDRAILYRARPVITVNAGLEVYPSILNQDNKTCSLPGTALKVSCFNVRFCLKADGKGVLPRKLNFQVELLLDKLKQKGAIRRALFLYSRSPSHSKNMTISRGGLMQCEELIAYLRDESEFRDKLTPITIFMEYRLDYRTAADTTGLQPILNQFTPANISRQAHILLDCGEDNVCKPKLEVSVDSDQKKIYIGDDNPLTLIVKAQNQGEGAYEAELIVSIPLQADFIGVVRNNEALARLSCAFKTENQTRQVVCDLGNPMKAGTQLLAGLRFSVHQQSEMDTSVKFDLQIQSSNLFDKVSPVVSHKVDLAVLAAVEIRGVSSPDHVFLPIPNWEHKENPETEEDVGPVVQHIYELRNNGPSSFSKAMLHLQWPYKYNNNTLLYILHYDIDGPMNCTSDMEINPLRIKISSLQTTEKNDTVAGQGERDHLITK
T1 sequence (P06756 891-1048 partner limits assumed): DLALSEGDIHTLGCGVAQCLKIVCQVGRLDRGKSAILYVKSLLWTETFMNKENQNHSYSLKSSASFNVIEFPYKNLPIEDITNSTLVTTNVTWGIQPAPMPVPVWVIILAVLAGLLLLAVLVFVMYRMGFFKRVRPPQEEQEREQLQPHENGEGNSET
T1 sequence (Q08722 19-323 partner): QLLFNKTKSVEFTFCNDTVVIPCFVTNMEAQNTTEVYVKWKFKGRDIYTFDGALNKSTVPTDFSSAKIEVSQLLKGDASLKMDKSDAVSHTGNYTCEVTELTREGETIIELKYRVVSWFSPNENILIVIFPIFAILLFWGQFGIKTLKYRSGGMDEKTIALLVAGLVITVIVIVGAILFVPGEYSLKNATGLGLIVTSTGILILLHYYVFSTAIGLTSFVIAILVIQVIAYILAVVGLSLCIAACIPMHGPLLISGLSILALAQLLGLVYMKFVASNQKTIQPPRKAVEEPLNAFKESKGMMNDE

For the sequence “CNYYSNSYSFWLASLNPER (Chemically synthesized NC1 alpha3 (IV) 185-203) [[NC1 α3(IV) 185-203], peptide constituted by amino acids 185 to 203 of the NC1 α3(IV) domain of type IV collagen]”, the “binding to the αVβ3 integrin-CD47 protein complex on the surface of melanoma cells” value in data set [1] is given as “binds”. Moreover, the “tumoral growth of murine melanoma B16F1 cells” value in data set [2] is on record as “inhibits the tumoral growth”. Also, in data set [3], the “migration of melanoma or fibrosarcoma cells in vitro” value was “inhibit the migration”. In data set [4], the “proliferation of various cancer cell lines” value is listed as “may inhibit the proliferation”. Also, the “angiogenesis in vitro and in vivo” value in the data set with angiogenesis is given as “capable of inhibiting angiogenesis”.
